# PubChem BioAssay (NCI)
#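 Following 48 hours of exposure in 96-well plates, responses at five concentrations were used to interpolate endpoints linearly. TGI is the concentration that stops growth completely.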
# Experiments:
# Test in all cases: inhibition of tumour cell growth, NCI panel, 48 h
# 786-0 renal = test system: 786-0 renal
# A549 NSCLC = test system: A549 NSCLC
# CAKI-1 renal = test system: CAKI-1 renal
# COLO 205 colon = test system: COLO 205 colon
# DLD-1 colon = test system: DLD-1 colon
# DMS 114 small cell lung = test system: DMS 114 small cell lung
# DMS 273 small cell lung = test system: DMS 273 small cell lung
# EKVX NSCLC = test system: EKVX NSCLC
# HCC-2998 colon = test system: HCC-2998 colon
# HCT-116 colon = test system: HCT-116 colon
# HCT-15 colon = test system: HCT-15 colon
# HOP-18 NSCLC = test system: HOP-18 NSCLC
# IGROV1 ovarian = test system: IGROV1 ovarian
# KM12 colon = test system: KM12 colon
# KM20L2 colon = test system: KM20L2 colon
# LXFL 529 NSCLC = test system: LXFL 529 NSCLC
# M14 melanoma = test system: M14 melanoma
# M19-MEL melanoma = test system: M19-MEL melanoma
# MALME-3M melanoma = test system: MALME-3M melanoma
# NCI-H226 lung = test system: NCI-H226 lung
# NCI-H23 lung = test system: NCI-H23 lung
# NCI-H460 lung = test system: NCI-H460 lung
# NCI-H522 lung = test system: NCI-H522 lung
# OVCAR-3 ovarian = test system: OVCAR-3 ovarian
# OVCAR-4 ovarian = test system: OVCAR-4 ovarian
# OVCAR-5 ovarian = test system: OVCAR-5 ovarian
# OVCAR-8 ovarian = test system: OVCAR-8 ovarian
# RPMI-8226 leukemia = test system: RPMI-8226 leukemia
# RXF 393 renal = test system: RXF 393 renal
# RXF-631 renal = test system: RXF-631 renal
# SF-268 CNS = test system: SF-268 CNS
# SF-295 CNS = test system: SF-295 CNS
# SF-539 CNS = test system: SF-539 CNS
# SK-MEL-2 melanoma = test system: SK-MEL-2 melanoma
# SK-MEL-28 melanoma = test system: SK-MEL-28 melanoma
# SN12C renal = test system: SN12C renal
# SNB-19 CNS = test system: SNB-19 CNS
# SNB-75 CNS = test system: SNB-75 CNS
# SNB-78 CNS = test system: SNB-78 CNS
# SR leukemia = test system: SR leukemia
# SW-620 colon = test system: SW-620 colon
# TK-10 renal = test system: TK-10 renal
# U251 CNS = test system: U251 CNS
# UACC-62 melanoma = test system: UACC-62 melanoma
# UO-31 renal = test system: UO-31 renal
# A498 renal = test system: A498 renal
# ACHN renal = test system: ACHN renal
# CCRF-CEM leukemia = test system: CCRF-CEM leukemia
# HL-60(TB) leukemia = test system: HL-60(TB) leukemia
# HOP-62 NSCLC = test system: HOP-62 NSCLC
# HOP-92 NSCLC = test system: HOP-92 NSCLC
# HT29 colon = test system: HT29 colon
# K-562 leukemia = test system: K-562 leukemia
# LOX IMVI melanoma = test system: LOX IMVI melanoma
# MOLT-4 leukemia = test system: MOLT-4 leukemia
# SK-MEL-5 melanoma = test system: SK-MEL-5 melanoma
# SK-OV-3 ovarian = test system: SK-OV-3 ovarian
# UACC-257 melanoma = test system: UACC-257 melanoma
smiles,measurement,setting,value
CCOc1ccc([Se][Se]c2ccc(OCC)cc2)cc1,TGI,786-0 renal,> 100 µM
same,TGI,A549 NSCLC,> 100 µM
same,TGI,CAKI-1 renal,49.6 µM
same,TGI,COLO 205 colon,> 100 µM
same,TGI,DLD-1 colon,> 100 µM
same,TGI,DMS 114 small cell lung,> 100 µM
same,TGI,DMS 273 small cell lung,> 100 µM
same,TGI,EKVX NSCLC,> 100 µM
same,TGI,HCC-2998 colon,> 100 µM
same,TGI,HCT-116 colon,> 100 µM
same,TGI,HCT-15 colon,> 100 µM
same,TGI,HOP-18 NSCLC,> 100 µM
same,TGI,IGROV1 ovarian,> 100 µM
same,TGI,KM12 colon,> 100 µM
same,TGI,KM20L2 colon,> 100 µM
same,TGI,LXFL 529 NSCLC,> 100 µM
same,TGI,M14 melanoma,> 100 µM
same,TGI,M19-MEL melanoma,> 100 µM
same,TGI,MALME-3M melanoma,> 100 µM
same,TGI,NCI-H226 lung,> 100 µM
same,TGI,NCI-H23 lung,54.9 µM
same,TGI,NCI-H460 lung,> 100 µM
same,TGI,NCI-H522 lung,> 100 µM
same,TGI,OVCAR-3 ovarian,> 100 µM
same,TGI,OVCAR-4 ovarian,> 100 µM
same,TGI,OVCAR-5 ovarian,> 100 µM
same,TGI,OVCAR-8 ovarian,> 100 µM
same,TGI,RPMI-8226 leukemia,> 100 µM
same,TGI,RXF 393 renal,> 100 µM
same,TGI,RXF-631 renal,> 100 µM
same,TGI,SF-268 CNS,> 100 µM
same,TGI,SF-295 CNS,> 100 µM
same,TGI,SF-539 CNS,> 100 µM
same,TGI,SK-MEL-2 melanoma,> 100 µM
same,TGI,SK-MEL-28 melanoma,> 100 µM
same,TGI,SN12C renal,> 100 µM
same,TGI,SNB-19 CNS,> 100 µM
same,TGI,SNB-75 CNS,> 100 µM
same,TGI,SNB-78 CNS,> 100 µM
same,TGI,SR leukemia,> 100 µM
same,TGI,SW-620 colon,> 100 µM
same,TGI,TK-10 renal,> 100 µM
same,TGI,U251 CNS,96.8 µM
same,TGI,UACC-62 melanoma,> 100 µM
same,TGI,UO-31 renal,> 100 µM
Cc1ccc(-n2c(O)c(C=N)c(=O)n(-c3ccc(C)cc3)c2=O)cc1,TGI,786-0 renal,> 100 µM
same,TGI,A498 renal,> 100 µM
same,TGI,A549 NSCLC,> 100 µM
same,TGI,ACHN renal,> 100 µM
same,TGI,CAKI-1 renal,> 100 µM
same,TGI,CCRF-CEM leukemia,> 100 µM
same,TGI,COLO 205 colon,> 100 µM
same,TGI,DLD-1 colon,> 100 µM
same,TGI,DMS 273 small cell lung,> 100 µM
same,TGI,EKVX NSCLC,> 100 µM
same,TGI,HCT-116 colon,> 100 µM
same,TGI,HCT-15 colon,> 100 µM
same,TGI,HL-60(TB) leukemia,> 100 µM
same,TGI,HOP-18 NSCLC,> 100 µM
same,TGI,HOP-62 NSCLC,> 100 µM
same,TGI,HOP-92 NSCLC,95.9 µM
same,TGI,HT29 colon,> 100 µM
same,TGI,IGROV1 ovarian,> 100 µM
same,TGI,K-562 leukemia,> 100 µM
same,TGI,KM12 colon,> 100 µM
same,TGI,KM20L2 colon,> 100 µM
same,TGI,LOX IMVI melanoma,> 100 µM
same,TGI,LXFL 529 NSCLC,> 100 µM
same,TGI,M14 melanoma,> 100 µM
same,TGI,M19-MEL melanoma,> 100 µM
same,TGI,MALME-3M melanoma,> 100 µM
same,TGI,MOLT-4 leukemia,> 100 µM
same,TGI,NCI-H226 lung,> 100 µM
same,TGI,NCI-H23 lung,> 100 µM
same,TGI,NCI-H460 lung,> 100 µM
same,TGI,NCI-H522 lung,> 100 µM
same,TGI,OVCAR-3 ovarian,> 100 µM
same,TGI,OVCAR-4 ovarian,> 100 µM
same,TGI,OVCAR-5 ovarian,> 100 µM
same,TGI,OVCAR-8 ovarian,> 100 µM
same,TGI,RXF 393 renal,> 100 µM
same,TGI,RXF-631 renal,> 100 µM
same,TGI,SF-268 CNS,> 100 µM
same,TGI,SF-295 CNS,> 100 µM
same,TGI,SF-539 CNS,> 100 µM
same,TGI,SK-MEL-2 melanoma,> 100 µM
same,TGI,SK-MEL-28 melanoma,> 100 µM
same,TGI,SK-MEL-5 melanoma,> 100 µM
same,TGI,SK-OV-3 ovarian,78.8 µM
same,TGI,SN12C renal,> 100 µM
same,TGI,SNB-19 CNS,> 100 µM
same,TGI,SNB-75 CNS,75.2 µM
same,TGI,SNB-78 CNS,> 100 µM
same,TGI,SR leukemia,> 100 µM
same,TGI,SW-620 colon,> 100 µM
same,TGI,TK-10 renal,> 100 µM
same,TGI,UACC-257 melanoma,> 100 µM
same,TGI,UACC-62 melanoma,> 100 µM
same,TGI,UO-31 renal,> 100 µM
